# Laboratory results published in ChEMBL document CHEMBL1201862, “PubChem BioAssay data set” (2004).
#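 96-well plates; 48 h exposure; 5 concentrations. Endpoints by linear interpolation between flanking doses. Not reached: highest tested concentration assigned. GI50 = concentration required for 50% inhibition of growth.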 Calls of active or inactive are those of the source. No stated cut-off is given here; in the data, active = GI50 up to about 1.1 µM and inactive = higher.
# Assays:
# Assay in all cases: NCI tumour cell line growth inhibition, 48 h
# [1] = test system: 786-0
# [2] = test system: SW-620
# [3] = test system: A549
# [4] = test system: MDA-MB-435
# [5] = test system: SNB-19
# [6] = test system: OVCAR-8
# [7] = test system: HOP-62
# [8] = test system: BT-549
# [9] = test system: CAKI-1
# [10] = test system: SF-539
# [11] = test system: UO-31
# [12] = test system: U-251
# [13] = test system: MDA-MB-231
# [14] = test system: UACC-257
# [15] = test system: NCI/ADR-RES
# [16] = test system: SF-268
# [17] = test system: RXF 393
# [18] = test system: COLO 205
# [19] = test system: MOLT-4
# [20] = test system: ACHN
# [21] = test system: HOP-92
# [22] = test system: T47D
# [23] = test system: HCC 2998
# [24] = test system: OVCAR-5
# [25] = test system: HCT-15
# [26] = test system: DU-145
# [27] = test system: SF-295
# [28] = test system: Malme-3M
# [29] = test system: NCI-H460
# [30] = test system: UACC-62
# [31] = test system: LOX IMVI
# [32] = test system: SNB-75
# [33] = test system: HL-60
# [34] = test system: NCI-H226
# [35] = test system: K562
# [36] = test system: EKVX
# [37] = test system: OVCAR-4
# [38] = test system: RPMI-8226
# [39] = test system: OVCAR-3
# [40] = test system: SK-MEL-28
# [41] = test system: PC-3
# [42] = test system: A498
# [43] = test system: HT-29
# [44] = test system: SK-MEL-2
# [45] = test system: SK-OV-3
# [46] = test system: M14
# [47] = test system: CCRF-CEM
# [48] = test system: SR
# [49] = test system: MDA-N
# [50] = test system: SN12C
# [51] = test system: MCF7
# [52] = test system: HCT-116
# [53] = test system: KM12
# [54] = test system: Hs-578T
# [55] = test system: NCI-H522
# [56] = test system: NCI-H23
# [57] = test system: TK-10
# [58] = test system: SK-MEL-5
# [59] = test system: IGROV-1
smiles,measurement,setting,value
CCCCCOC(=O)c1cc2cc(CCl)ccc2oc1=O,GI50,[1],3.02 µM (inactive)
same,GI50,[2],12.1 µM (inactive)
same,GI50,[3],1.97 µM (inactive)
same,GI50,[4],1.85 µM (inactive)
same,GI50,[5],18.7 µM (inactive)
same,GI50,[6],17.9 µM (inactive)
same,GI50,[7],8.28 µM (inactive)
same,GI50,[8],11.9 µM (inactive)
same,GI50,[9],1.75 µM (inactive)
same,GI50,[10],27.6 µM (inactive)
same,GI50,[11],2.06 µM (inactive)
same,GI50,[12],16.8 µM (inactive)
same,GI50,[13],16.5 µM (inactive)
same,GI50,[14],1.09 µM (active)
same,GI50,[15],17.3 µM (inactive)
same,GI50,[16],13.2 µM (inactive)
same,GI50,[17],2.18 µM (inactive)
same,GI50,[18],2.36 µM (inactive)
same,GI50,[19],7.33 µM (inactive)
same,GI50,[20],0.537 µM (active)
same,GI50,[21],2.62 µM (inactive)
same,GI50,[22],4.55 µM (inactive)
same,GI50,[23],14.9 µM (inactive)
same,GI50,[24],14.4 µM (inactive)
same,GI50,[25],3.69 µM
same,GI50,[26],3.86 µM (inactive)
same,GI50,[27],13.7 µM (inactive)
same,GI50,[28],0.274 µM (active)
same,GI50,[29],17.2 µM (inactive)
same,GI50,[30],1.64 µM (inactive)
same,GI50,[31],14.4 µM (inactive)
same,GI50,[32],8.22 µM (inactive)
same,GI50,[33],0.552 µM (active)
same,GI50,[34],15.7 µM (inactive)
same,GI50,[35],3.79 µM (inactive)
same,GI50,[36],3.37 µM (inactive)
same,GI50,[37],4.13 µM (inactive)
same,GI50,[38],18.9 µM (inactive)
same,GI50,[39],2.82 µM (inactive)
same,GI50,[40],6.49 µM (inactive)
same,GI50,[41],4.07 µM (inactive)
same,GI50,[42],2.44 µM (inactive)
same,GI50,[43],7.01 µM (inactive)
same,GI50,[44],0.466 µM (active)
same,GI50,[45],16.9 µM (inactive)
same,GI50,[46],1.51 µM (inactive)
same,GI50,[47],13.1 µM (inactive)
same,GI50,[48],8.07 µM (inactive)
same,GI50,[49],2.92 µM (inactive)
same,GI50,[50],9.59 µM (inactive)
same,GI50,[51],10.4 µM (inactive)
same,GI50,[52],10.1 µM (inactive)
same,GI50,[53],13.6 µM (inactive)
same,GI50,[54],7.23 µM (inactive)
same,GI50,[55],0.213 µM (active)
same,GI50,[56],1.5 µM (inactive)
same,GI50,[57],0.957 µM (active)
same,GI50,[58],2.62 µM (inactive)
same,GI50,[59],10.3 µM (inactive)
O=[N+]([O-])c1nccn1CC(O)CN1CCCCC1 (stereo not drawn) [PIMONIDAZOLE],GI50,[1],> 100 µM (inactive)
same,GI50,[2],> 100 µM (inactive)
same,GI50,[3],> 100 µM (inactive)
same,GI50,[4],> 100 µM (inactive)
same,GI50,[5],> 100 µM (inactive)
same,GI50,[6],> 100 µM (inactive)
same,GI50,[7],> 100 µM (inactive)
same,GI50,[8],> 100 µM (inactive)
same,GI50,[9],> 100 µM (inactive)
same,GI50,[10],> 100 µM (inactive)
same,GI50,[11],> 100 µM (inactive)
same,GI50,[12],> 100 µM (inactive)
same,GI50,[13],> 100 µM (inactive)
same,GI50,[14],> 100 µM (inactive)
same,GI50,[15],> 100 µM (inactive)
same,GI50,[16],> 100 µM (inactive)
same,GI50,[17],> 100 µM (inactive)
same,GI50,[18],> 100 µM (inactive)
same,GI50,[19],> 100 µM (inactive)
same,GI50,[20],> 100 µM (inactive)
same,GI50,[21],> 100 µM (inactive)
same,GI50,[22],> 100 µM (inactive)
same,GI50,[23],> 100 µM (inactive)
same,GI50,[24],> 100 µM (inactive)
same,GI50,[25],> 100 µM
same,GI50,[26],> 100 µM (inactive)
same,GI50,[27],> 100 µM (inactive)
same,GI50,[28],> 100 µM (inactive)
same,GI50,[29],> 100 µM (inactive)
same,GI50,[30],> 100 µM (inactive)
same,GI50,[31],> 100 µM (inactive)
same,GI50,[32],> 100 µM (inactive)
same,GI50,[33],> 100 µM (inactive)
same,GI50,[34],> 100 µM (inactive)
same,GI50,[35],> 100 µM (inactive)
same,GI50,[36],> 100 µM (inactive)
same,GI50,[37],> 100 µM (inactive)
same,GI50,[38],> 100 µM (inactive)
same,GI50,[39],> 100 µM (inactive)
same,GI50,[40],> 100 µM (inactive)
same,GI50,[41],> 100 µM (inactive)
same,GI50,[42],> 100 µM (inactive)
same,GI50,[43],> 100 µM (inactive)
same,GI50,[44],> 100 µM (inactive)
same,GI50,[45],> 100 µM (inactive)
same,GI50,[46],> 100 µM (inactive)
same,GI50,[47],> 100 µM (inactive)
same,GI50,[48],> 100 µM (inactive)
same,GI50,[49],> 100 µM (inactive)
same,GI50,[50],> 100 µM (inactive)
same,GI50,[51],> 100 µM (inactive)
same,GI50,[52],> 100 µM (inactive)
same,GI50,[53],> 100 µM (inactive)
same,GI50,[54],> 100 µM (inactive)
same,GI50,[55],> 100 µM (inactive)
same,GI50,[56],> 100 µM (inactive)
same,GI50,[57],> 100 µM (inactive)
same,GI50,[58],> 100 µM (inactive)
same,GI50,[59],> 100 µM (inactive)
